For data set [1], the target named is Nav 1.5 (Homo sapiens (Human), UniProt Q14524). The experiment in a line: Inhibition of sodium channels, Red Membrane Potential Dye FLIPR assay, veratridine depolarization. Particulars: HEK-293 cells overexpressing the channel. Type of data set: cell-based.
Data set [2] concerns the target Nav 1.7 (Homo sapiens (Human), UniProt Q15858). Described as above. To be noted: HEK-293 cells overexpressing the channel. It counts as cell-based.
Where [3] appears, read: read-out: Nav1.5 IC50 (bound given in μM).

Where two headings read alike, the source gives them in different places. Bounds are passed on as bounds.

Nav 1.7, sequence (Q15858 whole entry): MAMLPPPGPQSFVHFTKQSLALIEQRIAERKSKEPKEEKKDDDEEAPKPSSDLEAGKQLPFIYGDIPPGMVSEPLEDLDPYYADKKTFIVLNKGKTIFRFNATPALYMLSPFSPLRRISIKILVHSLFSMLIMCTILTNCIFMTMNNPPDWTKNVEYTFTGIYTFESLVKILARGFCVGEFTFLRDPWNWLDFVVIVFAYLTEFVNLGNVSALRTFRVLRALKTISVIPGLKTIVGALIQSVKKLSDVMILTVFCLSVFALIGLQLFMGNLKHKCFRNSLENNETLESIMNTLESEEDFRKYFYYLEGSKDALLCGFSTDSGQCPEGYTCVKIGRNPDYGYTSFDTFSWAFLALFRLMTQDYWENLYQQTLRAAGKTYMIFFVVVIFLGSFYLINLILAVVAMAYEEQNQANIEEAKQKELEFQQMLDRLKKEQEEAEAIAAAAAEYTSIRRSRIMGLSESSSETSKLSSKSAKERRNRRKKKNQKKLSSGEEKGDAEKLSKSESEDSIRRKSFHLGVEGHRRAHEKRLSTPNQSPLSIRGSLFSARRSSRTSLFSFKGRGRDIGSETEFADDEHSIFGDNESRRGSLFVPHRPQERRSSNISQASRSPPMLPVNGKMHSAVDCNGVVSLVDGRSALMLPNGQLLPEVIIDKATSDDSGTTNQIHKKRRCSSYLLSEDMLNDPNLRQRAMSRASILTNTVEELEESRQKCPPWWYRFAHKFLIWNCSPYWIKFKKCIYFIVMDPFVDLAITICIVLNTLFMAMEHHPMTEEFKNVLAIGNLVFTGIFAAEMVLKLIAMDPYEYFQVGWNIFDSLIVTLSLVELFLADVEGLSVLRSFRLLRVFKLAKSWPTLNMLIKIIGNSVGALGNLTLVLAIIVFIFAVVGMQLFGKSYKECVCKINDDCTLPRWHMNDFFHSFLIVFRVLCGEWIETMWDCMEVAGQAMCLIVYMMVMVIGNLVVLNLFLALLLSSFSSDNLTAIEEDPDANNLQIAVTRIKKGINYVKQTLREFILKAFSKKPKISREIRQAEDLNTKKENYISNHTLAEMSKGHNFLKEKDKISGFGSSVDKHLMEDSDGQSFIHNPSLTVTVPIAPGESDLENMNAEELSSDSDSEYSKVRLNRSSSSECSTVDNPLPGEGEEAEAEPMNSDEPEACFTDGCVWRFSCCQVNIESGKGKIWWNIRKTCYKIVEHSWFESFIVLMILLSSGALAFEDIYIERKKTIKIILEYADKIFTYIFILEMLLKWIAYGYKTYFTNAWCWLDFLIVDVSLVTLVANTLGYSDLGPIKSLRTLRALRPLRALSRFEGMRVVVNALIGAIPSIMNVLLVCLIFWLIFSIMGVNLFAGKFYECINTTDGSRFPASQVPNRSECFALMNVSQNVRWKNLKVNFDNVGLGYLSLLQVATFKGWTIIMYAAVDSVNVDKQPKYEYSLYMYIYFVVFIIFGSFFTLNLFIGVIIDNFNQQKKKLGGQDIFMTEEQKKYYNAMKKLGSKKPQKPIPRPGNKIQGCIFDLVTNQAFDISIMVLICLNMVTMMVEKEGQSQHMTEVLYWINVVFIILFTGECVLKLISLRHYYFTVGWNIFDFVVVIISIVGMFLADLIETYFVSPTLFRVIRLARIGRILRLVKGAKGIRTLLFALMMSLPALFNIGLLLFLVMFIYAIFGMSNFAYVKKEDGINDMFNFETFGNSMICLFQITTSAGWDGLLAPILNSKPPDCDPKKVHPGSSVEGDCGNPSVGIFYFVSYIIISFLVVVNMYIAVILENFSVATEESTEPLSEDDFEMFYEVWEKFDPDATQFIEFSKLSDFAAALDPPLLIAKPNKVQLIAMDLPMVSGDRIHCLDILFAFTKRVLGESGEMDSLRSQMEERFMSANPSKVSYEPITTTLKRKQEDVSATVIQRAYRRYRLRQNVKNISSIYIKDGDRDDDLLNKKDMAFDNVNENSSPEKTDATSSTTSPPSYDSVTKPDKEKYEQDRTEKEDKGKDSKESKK
Nav 1.5, sequence (Q14524 whole entry): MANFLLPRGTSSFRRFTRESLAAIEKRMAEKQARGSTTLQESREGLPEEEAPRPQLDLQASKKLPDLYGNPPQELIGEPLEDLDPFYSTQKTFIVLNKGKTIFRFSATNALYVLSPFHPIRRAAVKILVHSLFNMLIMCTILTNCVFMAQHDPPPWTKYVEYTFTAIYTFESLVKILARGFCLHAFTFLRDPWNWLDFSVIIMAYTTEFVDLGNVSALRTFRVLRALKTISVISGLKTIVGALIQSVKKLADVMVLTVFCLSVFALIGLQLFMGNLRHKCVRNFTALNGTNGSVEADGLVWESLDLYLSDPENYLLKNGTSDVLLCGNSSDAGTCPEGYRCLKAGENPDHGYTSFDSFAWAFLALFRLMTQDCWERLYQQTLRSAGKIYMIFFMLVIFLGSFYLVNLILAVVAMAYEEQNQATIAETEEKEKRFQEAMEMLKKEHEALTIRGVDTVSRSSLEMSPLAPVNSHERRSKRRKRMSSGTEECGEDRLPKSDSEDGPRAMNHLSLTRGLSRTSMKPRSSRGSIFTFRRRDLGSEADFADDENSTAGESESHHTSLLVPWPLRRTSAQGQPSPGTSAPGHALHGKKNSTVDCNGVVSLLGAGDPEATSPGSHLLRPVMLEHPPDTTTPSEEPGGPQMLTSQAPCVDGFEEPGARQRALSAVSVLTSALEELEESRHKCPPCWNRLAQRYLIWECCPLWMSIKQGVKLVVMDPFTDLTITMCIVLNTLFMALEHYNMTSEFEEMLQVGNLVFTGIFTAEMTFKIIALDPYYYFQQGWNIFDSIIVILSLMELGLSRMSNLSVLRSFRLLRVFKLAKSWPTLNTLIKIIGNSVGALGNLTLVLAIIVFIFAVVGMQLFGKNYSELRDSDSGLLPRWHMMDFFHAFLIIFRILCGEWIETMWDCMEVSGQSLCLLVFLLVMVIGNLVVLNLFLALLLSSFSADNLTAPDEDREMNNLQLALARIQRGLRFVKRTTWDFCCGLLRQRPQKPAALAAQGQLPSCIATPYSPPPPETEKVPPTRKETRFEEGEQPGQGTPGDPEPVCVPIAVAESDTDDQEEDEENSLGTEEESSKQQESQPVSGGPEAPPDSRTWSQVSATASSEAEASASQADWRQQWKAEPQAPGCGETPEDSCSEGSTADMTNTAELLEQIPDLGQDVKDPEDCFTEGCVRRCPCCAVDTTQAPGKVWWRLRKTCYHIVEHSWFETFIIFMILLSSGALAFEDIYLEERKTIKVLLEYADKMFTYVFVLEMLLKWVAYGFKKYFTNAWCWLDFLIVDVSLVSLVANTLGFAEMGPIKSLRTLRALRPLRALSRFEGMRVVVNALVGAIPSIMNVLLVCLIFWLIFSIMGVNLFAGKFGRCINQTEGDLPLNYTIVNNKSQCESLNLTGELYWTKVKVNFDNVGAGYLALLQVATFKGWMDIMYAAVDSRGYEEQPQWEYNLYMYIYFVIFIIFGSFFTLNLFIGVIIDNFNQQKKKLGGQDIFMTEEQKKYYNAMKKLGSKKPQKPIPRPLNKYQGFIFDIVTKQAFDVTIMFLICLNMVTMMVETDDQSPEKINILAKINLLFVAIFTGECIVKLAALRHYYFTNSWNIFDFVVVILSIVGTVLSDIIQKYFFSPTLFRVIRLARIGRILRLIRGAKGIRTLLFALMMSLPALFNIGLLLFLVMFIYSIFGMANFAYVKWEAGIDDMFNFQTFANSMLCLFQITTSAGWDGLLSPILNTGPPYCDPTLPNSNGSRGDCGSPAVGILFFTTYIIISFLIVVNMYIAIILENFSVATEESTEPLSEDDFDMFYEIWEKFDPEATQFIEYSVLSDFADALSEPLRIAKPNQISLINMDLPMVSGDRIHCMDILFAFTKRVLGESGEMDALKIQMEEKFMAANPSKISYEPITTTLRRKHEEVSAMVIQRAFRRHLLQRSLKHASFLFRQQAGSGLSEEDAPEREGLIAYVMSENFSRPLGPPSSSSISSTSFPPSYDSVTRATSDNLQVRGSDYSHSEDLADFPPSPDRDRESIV

The IC50 is the concentration that inhibits the measured activity by half. `O=S(=O)(Nc1cccc(F)n1)c1ccc2c(c1)OCC[C@@H]2c1ccc(C(F)(F)F)cc1Cl` (racemic) [Example 108, (S/R)-4-(2-chloro-4-(trifluoromethyl)phenyl)-N-(6-fluoropyridin-2-yl)chroman-7-sulfonamide]: the IC50 in data set [1] (read-out: Nav1.5 IC50) came to 2.18 µM; in data set [2] (read-out: Nav1.7 IC50), 0.057 µM.
On to `O=C1OCCN1c1cc(C(F)(F)F)ccc1[C@H]1CCOc2cc(S(=O)(=O)Nc3cccc(F)n3)ccc21` (racemic) [Example-210, (R/S)—N-(6-fluoropyridin-2-yl)-4-(2-(2-oxooxazolidin-3-yl)-4-(trifluoromethyl)phenyl)chromane-7-sulfonamide], for which the results for the IC50 in data set [1] (setting [3]) and in data set [2] (read-out: Nav1.7 IC50) were more than 10 µM and 0.048 µM, respectively.
For `O=S(=O)(Nc1cccc(F)n1)c1ccc2c(c1)OCC[C@@H]2c1ccc(C(F)(F)F)cc1CCF` (racemic) [Example 157, (R/S)-4-(2-(2-fluoroethyl)-4-(trifluoromethyl)phenyl)-N-(6-fluoropyridin-2-yl)chroman-7-sulfonamide], the figures for the IC50 in data set [1] (setting [3]) and in data set [2] (read-out: Nav1.7 IC50) were more than 10 µM and 0.042 µM, respectively.
With `COCCOc1cc(C(F)(F)F)ccc1[C@@H]1CCOc2cc(S(=O)(=O)Nc3ncccn3)ccc21` [Example 124, (S&R)-4-(2-(2-methoxyethoxy)-4-(trifluoromethyl)phenyl)-N-(pyrimidin-2-yl)chroman-7-sulfonamide], in data set [1] (10 μM), the “Nav1.5 % inhibition @ 10 μM” value worked out at 71%. For the same compound, the IC50 in data set [2] (read-out: Nav1.7 IC50) was found to be 2.23 µM.
With `O=S(=O)(Nc1cccnn1)c1ccc2c(c1)OCC[C@H]2c1ccc(C(F)(F)F)cc1-c1ccc(F)cn1` [Example-199, (S&R)-4-(2-(5-fluoropyridin-2-yl)-4-(trifluoromethyl)phenyl)-N-(pyridazin-3-yl)chroman-7-sulfonamide], the IC50 in data set [1] (setting [3]) was more than 10 µM; in data set [2] (read-out: Nav1.7 IC50), 0.355 µM.
As to `O=C1COCCN1c1cc(C(F)(F)F)ccc1[C@@H]1CCOc2cc(S(=O)(=O)Nc3ncccn3)ccc21` [Example-230, (S&R)-4-(2-(3-oxomorpholino)-4-(trifluoromethyl)phenyl)-N-(pyrimidin-2-yl)chroman-7-sulfonamide], the figures for the IC50 in data set [1] (setting [3]) and in data set [2] (read-out: Nav1.7 IC50) were more than 10 µM and 4.42 µM, respectively.
On to `O=S(=O)(Nc1ncc(F)cn1)c1ccc2c(c1)OCC[C@@H]2c1ccc(C(F)(F)F)cc1OC1CCOCC1` [Example-171, (R&S)—N-(5-fluoropyrimidin-2-yl)-4-(2-((tetrahydro-2H-pyran-4-yl)oxy)-4-(trifluoromethyl)phenyl)chroman-7-sulfonamide], for which, in data set [1] (10 μM), the “Nav1.5 % inhibition @ 10 μM” value stood at 53%. Further, the IC50 in data set [2] (read-out: Nav1.7 IC50) was determined as 0.125 µM.
As to `Cc1ccc(-c2cc(C(F)(F)F)ccc2[C@H]2CCOc3cc(S(=O)(=O)Nc4cccnn4)ccc32)cn1` (stereo in doubt) [Example-205, (R/S)-4-(2-(6-methylpyridin-3-yl)-4-(trifluoromethyl)phenyl)-N-(pyridazin-3-yl)chroman-7-sulfonamide], the IC50 in data set [1] (read-out: Nav1.5 IC50) was 0.25 µM; in data set [2] (read-out: Nav1.7 IC50), 0.008 µM.
Take `Cc1nc(-c2cc(C(F)(F)F)ccc2[C@@H]2CCOc3cc(S(=O)(=O)Nc4ccncn4)ccc32)cs1` [Example 67, (S&R)-4-(2-(2-Methylthiazol-4-yl)-4-(trifluoromethyl)phenyl)-N-(pyrimidin-4-yl)chroman-7-sulfonamide]: the values for the concentration for half-maximal inhibition (IC50) in data set [1] (setting [3]) and in data set [2] (read-out: Nav1.7 IC50) were more than 10 µM and 0.03 µM, respectively.
Take `COCCOc1cc(C(F)(F)F)ccc1[C@H]1CCOc2cc(S(=O)(=O)Nc3ncccn3)ccc21` [Example 125, (S&R)-4-(2-(2-methoxyethoxy)-4-(trifluoromethyl)phenyl)-N-(pyrimidin-2-yl)chroman-7-sulfonamide]: the results for the IC50 in data set [1] (read-out: Nav1.5 IC50) and in data set [2] (read-out: Nav1.7 IC50) were 2.64 µM and 0.395 µM, respectively.
In the case of `CC(C)Oc1cccc(NS(=O)(=O)c2ccc3c(c2)OCC[C@H]3c2ccc(C(F)(F)F)cc2-c2ccnn2C)n1` [Example 25, (S&R)—N-(6-isopropoxypyridin-2-yl)-4-(2-(1-methyl-1H-pyrazol-5-yl)-4-(trifluoromethyl)phenyl)chroman-7-sulfonamide], the IC50 is more than 10 µM in data set [1] (setting [3]) and 0.221 µM in data set [2] (read-out: Nav1.7 IC50).
In the case of `O=S(=O)(Nc1ncccn1)c1ccc2c(c1)OCC[C@@H]2c1ccc(C(F)(F)F)cc1OC1COC1` [Example-217, (R&S)-4-(2-(oxetan-3-yloxy)-4-(trifluoromethyl)phenyl)-N-(pyrimidin-2-yl)chroman-7-sulfonamide], the “Nav1.5 % inhibition @ 10 μM” value in data set [1] (10 μM) amounted to 50%. Besides, the IC50 in data set [2] (read-out: Nav1.7 IC50) was 0.152 µM.
Broadly, the inhibition is the percentage by which the read-out fell short of the control. A low value points to a response near the control. As to `O=S(=O)(Nc1cccnn1)c1ccc2c(c1)OCC[C@@H]2c1ccc(C(F)(F)F)cc1CCF` (racemic) [Example 156, (R/S)-4-(2-(2-fluoroethyl)-4-(trifluoromethyl)phenyl)-N-(pyridazin-3-yl)chroman-7-sulfonamide], in data set [1] (HEK-293 cells overexpressing Nav 1.5, 10 μM), the inhibition at 10 µM came to 36%. The IC50 in data set [2] (read-out: Nav1.7 IC50) is 0.042 µM.
For the compound `O=S(=O)(Nc1cccc(F)n1)c1ccc2c(c1)OCC[C@@H]2c1ccc(C(F)(F)F)cc1CCCCF` (racemic) [Example 167, (R/S)-4-(2-(4-fluorobutyl)-4-(trifluoromethyl)phenyl)-N-(6-fluoropyridin-2-yl)chroman-7-sulfonamide], the results for the IC50 in data set [1] (read-out: Nav1.5 IC50) and in data set [2] (read-out: Nav1.7 IC50) were 0.241 µM and 0.058 µM, respectively.
Consider `O=S(=O)(Nc1ncccn1)c1ccc2c(c1)OCC[C@H]2c1ccc(C(F)(F)F)cc1OC1CCOCC1` [Example-168, (R&S)—N-(pyrimidin-2-yl)-4-(2-((tetrahydro-2H-pyran-4-yl)oxy)-4-(trifluoromethyl)phenyl)chroman-7-sulfonamide], for which the IC50 in data set [1] (setting [3]) was more than 10 µM; in data set [2] (read-out: Nav1.7 IC50) it was 3.9 µM.
As to `O=S(=O)(Nc1ncccn1)c1ccc2c(c1)OCC[C@H]2c1ccc(C(F)(F)F)cc1OCCCF` [Example-220, (S&R)-4-(2-(3-fluoropropoxy)-4-(trifluoromethyl)phenyl)-N-(pyrimidin-2-yl)chroman-7-sulfonamide], the IC50 in data set [1] (setting [3]) and in data set [2] (read-out: Nav1.7 IC50 (bound given in μM)) was more than 10 µM throughout.
In the case of `COCCCCc1cc(C(F)(F)F)ccc1[C@@H]1CCOc2cc(S(=O)(=O)Nc3ncccn3)ccc21` [Example 146, (S&R)-4-(2-(4-methoxybutyl)-4-(trifluoromethyl)phenyl)-N-(pyrimidin-2-yl)chroman-7-sulfonamide], the IC50 in data set [1] (setting [3]) was more than 10 µM; in data set [2] (read-out: Nav1.7 IC50), 0.79 µM.
Regarding `Cc1cccc(NS(=O)(=O)c2ccc3c(c2)OCC[C@H]3c2ccc(C(F)(F)F)cc2-c2ccnn2C)n1` [Example 19, (S&R)-4-(2-(1-methyl-1H-pyrazol-5-yl)-4-(trifluoromethyl)phenyl)-N-(6-methylpyridin-2-yl)chroman-7-sulfonamide], the IC50 in data set [1] (setting [3]) is more than 10 µM; in data set [2] (read-out: Nav1.7 IC50), 1.01 µM.
Take `COCCCOc1cc(C(F)(F)F)ccc1[C@H]1CCOc2cc(S(=O)(=O)Nc3cccc(F)n3)ccc21` (racemic) [Example 134, (R/S)—N-(6-fluoropyridin-2-yl)-4-(2-(3-methoxypropoxy)-4-(trifluoromethyl)phenyl)chroman-7-sulfonamide]: the IC50 in data set [1] (read-out: Nav1.5 IC50) was 1.34 µM; in data set [2] (read-out: Nav1.7 IC50) it was 0.031 µM.
As to `O=S(=O)(Nc1ccncn1)c1ccc2c(c1)OCC[C@@H]2c1ccc(C(F)(F)F)cc1CCCCF` (racemic) [Example 165, (R/S)-4-(2-(4-fluorobutyl)-4-(trifluoromethyl)phenyl)-N-(pyrimidin-4-yl)chroman-7-sulfonamide], the results for the IC50 in data set [1] (read-out: Nav1.5 IC50) and in data set [2] (read-out: Nav1.7 IC50) were 0.303 µM and 0.005 µM, respectively.
In the case of `Cc1nc(-c2cc(C(F)(F)F)ccc2[C@@H]2CCOc3cc(S(=O)(=O)Nc4cccc(F)n4)ccc32)cs1` [Example 61], the IC50 was more than 10 µM in data set [1] (setting [3]) and 0.568 µM in data set [2] (read-out: Nav1.7 IC50).

The values above are taken from US10239869B2, “Sulfonamide compounds as voltage-gated sodium channel modulators” (LUPIN LIMITED, priority 2015, dated 2019).
